Assay results taken from patent US8962647B1, “Conjugate of polyethylene gylcol and naloxone and pharmaceutical composition and use thereof” (Jenkem Technology Co., Ltd. (Tianjin), priority 2012, dated 2015).

Molecular target: T1, MOR receptors (Homo sapiens, UniProt P35372)
T1 construct: expressed in transfected cells; host or cells: CHO cells
Assay: cell-based
Format: cell-based
Conditions: CHO cells stably expressing MOR/Gα16; calcium flux caused by known agonist DAMGO; fluorescence at 525 nm
From the text: A cell line co-transfected with MOR and Gα16 is established, such that activation of receptors can activate Ga16 protein, which in turn activates phospholipase C (PLC) to generate IP3 and DAG. IP3 can bind to IP3 receptors on endoplasmic reticulum and mitochondria in the cells, thereby triggering the release of intracellular calcium. Therefore, detection of intracellular calcium levels can be employed as a measure for detecting the activation state of MOR. Fluo-4/AM is a calcium fluorescent probe indicator for measuring calcium ions. It is a non-polar liposoluble compound, which, upon entering a cell and by the action of lipolytic enzymes, releases Fluo-4 while the AM moiety is dissociated. As a polar molecule, Fluo-4 cannot easily pass through the lipid bilayer membrane, thus it is retained in the cells for a long duration. Eventually, the level of activation of Gα proteins is reflected by measuring the intensity of fluorescence that is excited.
1. inoculating CHO cells stably expressing MOR/Gα16 in a 96-well plate and incubating the same overnight;
2. removing the medium from the wells inoculated with cells, adding freshly prepared dye (40 μl/well), and incubating for 40 minutes in a thermostatic incubator of 37° C.;
3. diluting the test substances with a calcium buffer and homogenizing; […]

T1 sequence (P35372 whole entry): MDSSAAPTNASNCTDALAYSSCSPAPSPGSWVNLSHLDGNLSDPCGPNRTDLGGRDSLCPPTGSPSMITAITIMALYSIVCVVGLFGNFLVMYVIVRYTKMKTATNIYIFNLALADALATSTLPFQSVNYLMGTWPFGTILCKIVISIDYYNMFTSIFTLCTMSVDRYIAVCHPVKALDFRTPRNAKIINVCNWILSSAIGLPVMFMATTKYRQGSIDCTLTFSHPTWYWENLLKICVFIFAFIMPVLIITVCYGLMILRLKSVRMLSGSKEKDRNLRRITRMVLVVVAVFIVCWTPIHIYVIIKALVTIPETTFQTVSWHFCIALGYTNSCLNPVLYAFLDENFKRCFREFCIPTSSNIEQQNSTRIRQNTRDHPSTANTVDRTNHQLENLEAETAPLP

Row | SMILES | IC50 [nM]
1 | C=CCN1CC[C@]23c4c5ccc(O)c4O[C@H]2[C@@H](OCCOCCOCCOCCO[C@H]2CC[C@@]4(O)[C@H]6Cc7ccc(O)c8c7[C@@]4(CCN6CC=C)[C@H]2O8)CC[C@@]3(O)[C@H]1C5 [(α,α)-NAL24, double-end substituted tetraethylene glycol-naloxone] | 7.16
2 | COC(=O)/C=C/C(=O)N[C@@H]1CC[C@@]2(O)[C@H]3Cc4ccc(O)c5c4[C@@]2(CCN3CC2CC2)[C@H]1O5 [Beta-FNA] | 2.62
